Data published in ChEMBL document CHEMBL1201862, “PubChem BioAssay data set” (2004).
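Compound exposure: 48 hours, 5 concentrations, 96-well plates. Abbreviation: GI50, concentration required for 50% inhibition of growth.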 The source made the active and inactive calls. Rule as the data show it: active = GI50 up to about 1.1 µM and inactive = higher.

Assays:
Assay in all cases: NCI-60 cell line screen, 48 h
HCT-15 = test system: HCT-15
OVCAR-4 = test system: OVCAR-4
MDA-MB-231 = test system: MDA-MB-231
SK-MEL-28 = test system: SK-MEL-28
SNB-19 = test system: SNB-19
MDA-N = test system: MDA-N
HOP-62 = test system: HOP-62
A498 = test system: A498
NCI-H460 = test system: NCI-H460
KM12 = test system: KM12
SF-295 = test system: SF-295
U-251 = test system: U-251
SNB-75 = test system: SNB-75
OVCAR-5 = test system: OVCAR-5
SF-268 = test system: SF-268
ACHN = test system: ACHN
NCI/ADR-RES = test system: NCI/ADR-RES
NCI-H23 = test system: NCI-H23
UO-31 = test system: UO-31
K562 = test system: K562

Structure (SMILES)	GI50 (HCT-15) [µM]	GI50 (OVCAR-4)	GI50 (MDA-MB-231)	GI50 (SK-MEL-28)	GI50 (SNB-19)	GI50 (MDA-N)	GI50 (HOP-62)	GI50 (A498)	GI50 (NCI-H460)	GI50 (KM12)	GI50 (SF-295)	GI50 (U-251)	GI50 (SNB-75)	GI50 (OVCAR-5)	GI50 (SF-268)	GI50 (ACHN)	GI50 (NCI/ADR-RES)	GI50 (NCI-H23)	GI50 (UO-31)	GI50 (K562)
O=Cc1ccc(Oc2c3ccccc3nc3ccccc23)cc1	4.16	4.63 µM (inactive)	2.29 µM (inactive)	12.6 µM (inactive)	16.4 µM (inactive)	3.51 µM (inactive)	14.4 µM (inactive)	0.869 µM (active)	16 µM (inactive)	11.1 µM (inactive)	19.6 µM (inactive)	5.27 µM (inactive)	15.5 µM (inactive)	4.29 µM (inactive)	4.5 µM (inactive)	3.61 µM (inactive)	10.2 µM (inactive)			
Cc1cc(Cc2cc(C)cc(C(C)(C)C)c2O)c(O)c(Cc2cc(C)cc(C(C)(C)C)c2O)c1	2.24	4.05 µM (inactive)	1.79 µM (inactive)	4.14 µM (inactive)	4.11 µM (inactive)	3.66 µM (inactive)	2.88 µM (inactive)	2.39 µM (inactive)	1.57 µM (inactive)	2.91 µM (inactive)	3.18 µM (inactive)	2.7 µM (inactive)	4.62 µM (inactive)	3.48 µM (inactive)	1.7 µM (inactive)	3.37 µM (inactive)	2.85 µM (inactive)	1.66 µM (inactive)	2.98 µM (inactive)	0.931 µM (active)
CCN1CSC(=S)N(CC)C1	73.3	> 100 µM (inactive)	19.5 µM (inactive)	> 100 µM (inactive)	> 100 µM (inactive)	79.8 µM (inactive)	24 µM (inactive)	27.8 µM (inactive)	56.2 µM (inactive)	98.2 µM (inactive)	> 100 µM (inactive)	50.8 µM (inactive)	44.2 µM (inactive)	> 100 µM (inactive)	> 100 µM (inactive)	> 100 µM (inactive)	> 100 µM (inactive)	48.3 µM (inactive)	> 100 µM (inactive)	> 100 µM (inactive)
COc1ccc(-n2cnc3c(N)nc(N)nc32)cc1	> 100	> 100 µM (inactive)	57.8 µM (inactive)	> 100 µM (inactive)	> 100 µM (inactive)	> 100 µM (inactive)	> 100 µM (inactive)	54.8 µM (inactive)		29.1 µM (inactive)	> 100 µM (inactive)	> 100 µM (inactive)	45.7 µM (inactive)	> 100 µM (inactive)	> 100 µM (inactive)	> 100 µM (inactive)	> 100 µM (inactive)	> 100 µM (inactive)	65 µM (inactive)	
OC[C@@H](O)[C@H](O)[C@H](O)[C@@H](O)C1SCCCS1	> 100	> 100 µM (inactive)	> 100 µM (inactive)	> 100 µM (inactive)	> 100 µM (inactive)	> 100 µM (inactive)	> 100 µM (inactive)	> 100 µM (inactive)	> 100 µM (inactive)	> 100 µM (inactive)	> 100 µM (inactive)	> 100 µM (inactive)	> 100 µM (inactive)	> 100 µM (inactive)	> 100 µM (inactive)	> 100 µM (inactive)	> 100 µM (inactive)	> 100 µM (inactive)	> 100 µM (inactive)	
CNC(=O)N1N[C@H](c2ccccc2)[C@@H]1c1ccccc1.OB(O)O	24.3	42 µM (inactive)	28.8 µM (inactive)	18 µM (inactive)	46.1 µM (inactive)	28.1 µM (inactive)	28.6 µM (inactive)	20.6 µM (inactive)	21.8 µM (inactive)	17 µM (inactive)	17.3 µM (inactive)	20 µM (inactive)	15.6 µM (inactive)	29.9 µM (inactive)		36.6 µM (inactive)	15.4 µM (inactive)	22.6 µM (inactive)	22.5 µM (inactive)	22.6 µM (inactive)
O=C1C(=Cc2ccco2)C(=O)C2CCCCC12 (configuration not stated)	> 100	> 100 µM (inactive)	> 100 µM (inactive)	> 100 µM (inactive)	> 100 µM (inactive)	> 100 µM (inactive)	> 100 µM (inactive)	> 100 µM (inactive)	> 100 µM (inactive)	> 100 µM (inactive)	> 100 µM (inactive)	> 100 µM (inactive)	> 100 µM (inactive)	> 100 µM (inactive)	> 100 µM (inactive)	> 100 µM (inactive)	> 100 µM (inactive)	> 100 µM (inactive)		17.6 µM (inactive)
CCCN(CCC)C(=O)c1c(Cl)c2cccnc2n2c(C)cnc12		> 100 µM (inactive)	31.8 µM (inactive)	> 100 µM (inactive)	> 100 µM (inactive)	23.6 µM (inactive)	> 100 µM (inactive)	69.5 µM (inactive)	76.9 µM (inactive)	51.1 µM (inactive)	> 100 µM (inactive)		62.7 µM (inactive)	> 100 µM (inactive)	96.2 µM (inactive)	> 100 µM (inactive)	50.4 µM (inactive)	90.2 µM (inactive)	38.8 µM (inactive)	26.3 µM (inactive)
CN(C)c1ccc(/N=N/c2ccc3[nH]cnc3c2)cc1	22.1	24.2 µM (inactive)	15.1 µM (inactive)	11.5 µM (inactive)	41.8 µM (inactive)	26.9 µM (inactive)		20.4 µM (inactive)	18.8 µM (inactive)	29.2 µM (inactive)	24.4 µM (inactive)	24.5 µM (inactive)	31.6 µM (inactive)	26.5 µM (inactive)	20.6 µM (inactive)	19 µM (inactive)	41 µM (inactive)	45.5 µM (inactive)	28.4 µM (inactive)	19.5 µM (inactive)
Cc1ccc(S(=O)(=O)Oc2nc3ccccc3nc2OS(=O)(=O)c2ccc(C)cc2)cc1	> 100		> 100 µM (inactive)	28 µM (inactive)	> 100 µM (inactive)	> 100 µM (inactive)		> 100 µM (inactive)	> 100 µM (inactive)	> 100 µM (inactive)	> 100 µM (inactive)	> 100 µM (inactive)	> 100 µM (inactive)	> 100 µM (inactive)	> 100 µM (inactive)	> 100 µM (inactive)	> 100 µM (inactive)	> 100 µM (inactive)	> 100 µM (inactive)	32.4 µM (inactive)
Oc1ccc(SCc2cc(O)c(O)c(O)c2)cc1	39.9		36.4 µM (inactive)	92.9 µM (inactive)	59.4 µM (inactive)	> 10 µM (inactive)	29 µM (inactive)	40.5 µM (inactive)	19.1 µM (inactive)	20.3 µM (inactive)	15.8 µM (inactive)	37.1 µM (inactive)	46.5 µM (inactive)	22.4 µM (inactive)	> 100 µM (inactive)	47.9 µM (inactive)	19.7 µM (inactive)	41.4 µM (inactive)	24.8 µM (inactive)	13.2 µM (inactive)
CC(C(=O)c1ccccc1)C(c1ccccc1)N1CCOCC1 (configuration not stated)	> 100	> 100 µM (inactive)	> 100 µM (inactive)	> 100 µM (inactive)	> 100 µM (inactive)	> 100 µM (inactive)	> 100 µM (inactive)	> 100 µM (inactive)	> 100 µM (inactive)	> 100 µM (inactive)	> 100 µM (inactive)	> 100 µM (inactive)	> 100 µM (inactive)	> 100 µM (inactive)	> 100 µM (inactive)	> 100 µM (inactive)	> 100 µM (inactive)	> 100 µM (inactive)		> 100 µM (inactive)
COc1ccc(S(=O)(=O)NC(CCC(=O)NC(N)=O)C(=O)NC(N)=O)cc1 (configuration not stated)	> 100	> 100 µM (inactive)	> 100 µM (inactive)	> 100 µM (inactive)	> 100 µM (inactive)	> 100 µM (inactive)	> 100 µM (inactive)	> 100 µM (inactive)	> 100 µM (inactive)	> 100 µM (inactive)	> 100 µM (inactive)	> 100 µM (inactive)	> 100 µM (inactive)	> 100 µM (inactive)		> 100 µM (inactive)	> 100 µM (inactive)	> 100 µM (inactive)	> 100 µM (inactive)	> 100 µM (inactive)
COc1c2c(cc3nc4ccccc4nc13)CC[C@H](NC(C)=O)c1cc(=O)c(SC)ccc1-2	2.84	4.27 µM (inactive)	2.96 µM (inactive)	12.7 µM (inactive)	0.446 µM (active)	0.18 µM (active)	11.9 µM (inactive)	7.62 µM (inactive)	0.933 µM (active)	0.273 µM (active)	1.17 µM (inactive)	0.353 µM (active)		24.5 µM (inactive)	1.15 µM (inactive)	4.15 µM (inactive)	12.5 µM (inactive)	0.238 µM (active)	5.09 µM (inactive)	0.29 µM (active)
Oc1ccc(/C=C/c2ccc3cccc(O)c3n2)cc1O	3.29	7.5 µM (inactive)	23 µM (inactive)	13 µM (inactive)	5.02 µM (inactive)	5.41 µM (inactive)	13.1 µM (inactive)	11.5 µM (inactive)	3.11 µM (inactive)	5.45 µM (inactive)	8.17 µM (inactive)	4.2 µM (inactive)	4.74 µM (inactive)	16.1 µM (inactive)	6.5 µM (inactive)	3.42 µM (inactive)	0.493 µM (active)		2.74 µM (inactive)	3.69 µM (inactive)
